Test results from patent US10517889B2, “Modulators of SMAD7 expression” (Ionis Pharmaceuticals, Inc., priority 2017, dated 2019).
Strand notation (5' to 3'): a small letter for the sugar, then the base; units joined by * are phosphorothioate-linked, units joined directly phosphodiester-linked; [ ] holds rarer units or linkages, { } end groups; capitals alone tell only the bases. k = constrained ethyl (cEt); [5mC] = 5-methylcytosine; d = 2'-deoxy (DNA)

Test system: human SMAD7 mRNA
Test: Antisense inhibition of human SMAD7 mRNA expression in Hep3B cells by 3-10-3 cEt gapmers, 10,000 nM, electroporation (Example 2)
Format: cell-based
Conditions: approximately 24 hours
Method in brief: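 Hep3B cells (20,000/well) were electroporated with 10,000 nM 3-10-3 cEt gapmer (16-mer, phosphorothioate, 5-methylcytosines) and harvested after about 24 h. SMAD7 mRNA quantified by RT-qPCR with primer probe set RTS5062, normalized to total RNA by RiboGreen; percent inhibition relative to untreated cells.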

[1] = Hep3B cells, electroporation, 10,000 nM antisense oligonucleotide, RTS5062, relative to untreated control cells
[2] = Hep3B cells, electroporation with 10,000 nM antisense oligonucleotide, primer probe set RTS5062, relative to untreated control cells
[3] = SMAD7 mRNA, Hep3B cells, electroporation with 10,000 nM antisense oligonucleotide, primer probe set RTS5062, relative to untreated control cells
[4] = SMAD7 mRNA, Hep3B cells, 10,000 nM antisense oligonucleotide, electroporation, primer probe set RTS5062, relative to untreated control cells
[5] = Hep3B cells, 10,000 nM antisense oligonucleotide, electroporation, RT-PCR primer probe set RTS5062, relative to untreated control cells
[6] = Hep3B cells, electroporation with 10,000 nM antisense oligonucleotide, SMAD7 mRNA by RT-PCR (RTS5062), relative to untreated control cells
[7] = Hep3B cells, electroporation with 10,000 nM antisense oligonucleotide, RTS5062, percent inhibition of SMAD7 mRNA relative to untreated control cells

In the case of “799831 (antisense kT*kA*k[5mC]*dT*dT*dG*dG*dA*dA*dG*dA*dG*dT*kT*kT*kG) [compound 799831]”, the “% inhibition of SMAD7 mRNA expression” value [1] is reported as 18%.

In the case of “799378 (antisense kG*kA*kA*dT*dA*d[5mC]*dT*dG*dA*dG*dA*dA*dA*kA*k[5mC]*k[5mC]) [compound 799378]”, the “% inhibition of SMAD7 mRNA expression” value [2] is reported as 46%.

“829977 (kT*kA*kG*d[5mC]*dT*dG*dT*d[5mC]*dA*dG*dA*dT*dA*kA*kA*k[5mC]; antisense) [compound 829977]” was tested, and the “% Inhibition” value [3] was 35%.

In the case of “829833 (kG*kT*kG*dA*d[5mC]*d[5mC]*dG*dA*dT*d[5mC]*d[5mC]*d[5mC]*d[5mC]*kA*kG*kG; antisense) [compound 829833]”, the “% Inhibition” value [3] is reported as 0%.

“829743 (antisense kA*k[5mC]*kG*d[5mC]*d[5mC]*dG*dG*dA*d[5mC]*dG*dA*dG*d[5mC]*kG*k[5mC]*kA) [compound 829743]” was tested, and the “% Inhibition” value [4] was 25%.

“799501 (antisense kA*kA*kA*dA*dG*dA*dG*d[5mC]*dA*dG*dA*d[5mC]*dG*kG*kG*k[5mC]) [compound 799501]” was tested, and the “% inhibition of SMAD7 mRNA expression” value [1] was 0%.

In the case of “799951 (antisense kT*k[5mC]*kT*dT*dA*dA*dA*dA*dA*dA*dA*dG*dG*kG*kA*kG) [compound 799951]”, the “% Inhibition” value [5] is reported as 0%.

“798937 (antisense kG*kT*kT*dT*dG*d[5mC]*dA*dT*dG*dA*dA*dA*dA*kG*k[5mC]*kA) [compound 798937]” was tested, and the “% Inhibition” value [2] was 35%.

With “798902 (kT*kG*kA*d[5mC]*d[5mC]*dT*d[5mC]*dT*dA*dG*d[5mC]*d[5mC]*dA*kG*k[5mC]*kA; antisense) [compound 798902]” the “% Inhibition” value [6] was 54%.

“799932 (antisense kT*k[5mC]*kA*dA*dG*dA*dG*dA*d[5mC]*dG*dG*dT*dG*kA*kG*k[5mC]) [compound 799932]” was tested, and the “% Inhibition” value [5] was 0%.

For “799779 (kT*kA*kA*dA*d[5mC]*dA*dA*dA*d[5mC]*d[5mC]*dA*d[5mC]*dA*kG*kG*kG; antisense) [compound 799779]”, the “% inhibition of SMAD7 mRNA expression” value [1] was 19%.

With “772532 (antisense k[5mC]*kA*kG*d[5mC]*dA*dG*dG*d[5mC]*dG*d[5mC]*dA*dG*dG*k[5mC]*kG*kA) [compound 772532]” the “% inhibition of SMAD7 mRNA expression” value [2] was 21%.

For “799522 (antisense kT*kT*kT*dA*dA*dA*dG*dA*d[5mC]*dA*dG*dG*dT*kT*kT*k[5mC]) [compound 799522]”, the “% inhibition of SMAD7 mRNA expression” value [1] was 32%.

For “799314 (antisense k[5mC]*kA*kA*dG*dA*dT*d[5mC]*d[5mC]*dA*dT*d[5mC]*dT*dT*kT*kA*kA) [compound 799314]”, the “% Inhibition” value [7] was 0%.

For “830039 (antisense kT*kT*k[5mC]*d[5mC]*dT*dA*dT*dT*dG*dG*d[5mC]*dT*dG*kA*kT*k[5mC]) [compound 830039]”, the “% Inhibition” value [6] was 51%.

In the case of “798659 (k[5mC]*k[5mC]*k[5mC]*dA*d[5mC]*d[5mC]*d[5mC]*d[5mC]*dG*d[5mC]*dG*d[5mC]*dG*kG*k[5mC]*k[5mC]; antisense) [compound 798659]”, the “% inhibition of SMAD7 mRNA expression” value [2] is reported as 58%.

“799880 (kT*k[5mC]*k[5mC]*dG*dA*dT*dG*dG*dA*dA*dA*dA*dG*k[5mC]*kT*k[5mC]; antisense) [compound 799880]” was tested, and the “% Inhibition” value [5] was 39%.

With “829871 (antisense kG*kT*k[5mC]*d[5mC]*dA*dG*dT*dG*dT*dG*dG*d[5mC]*dG*kG*kA*k[5mC]) [compound 829871]” the “% Inhibition” value [3] was 1%.

With “799239 (kT*k[5mC]*kA*dG*dT*dT*dG*dG*dT*dT*dT*dG*dA*kG*kA*kA; antisense) [compound 799239]” the “% inhibition of SMAD7 mRNA expression” value (Hep3B cells, electroporation, 10,000 nM, 3-10-3 cEt gapmers targeting SEQ ID NO: 3 and 4) was 16%.

“830172 (antisense k[5mC]*kT*kG*d[5mC]*dT*d[5mC]*dT*dG*dT*dT*dT*dG*dG*kA*k[5mC]*kA) [compound 830172]” was tested, and the “% Inhibition” value [6] was 27%.

For “799071 (antisense kG*kG*kA*dA*dG*dG*dG*dA*dA*dT*dA*dA*dG*kA*k[5mC]*kA) [compound 799071]”, the “% inhibition of SMAD7 mRNA expression” value [2] was 44%.

With “798723 (antisense k[5mC]*kG*k[5mC]*d[5mC]*dT*dT*dG*d[5mC]*d[5mC]*d[5mC]*dA*dG*dG*k[5mC]*kA*kG) [compound 798723]” the “% inhibition of SMAD7 mRNA expression” value [2] was 0%.

With “829920 (antisense kA*kT*kA*d[5mC]*dG*dA*dG*dT*dG*dT*dA*dT*dG*kA*kG*kT) [compound 829920]” the “% Inhibition” value [3] was 30%.

With “799446 (antisense kG*kA*k[5mC]*d[5mC]*dT*dA*dA*dT*d[5mC]*dT*d[5mC]*dT*dT*kT*k[5mC]*kA) [compound 799446]” the “% Inhibition” value [6] was 48%.

“798898 (kA*kG*k[5mC]*dT*dG*d[5mC]*dT*dG*dA*dT*dG*dA*dA*k[5mC]*kT*kG; antisense) [compound 798898]” was tested, and the “% Inhibition” value [6] was 2%.

For “799179 (antisense kA*kA*kT*dA*dG*d[5mC]*dT*dT*dA*dT*dG*dT*dT*kA*kA*kA) [compound 799179]”, the “% Inhibition” value [2] was 0%.

For “800057 (antisense kT*kT*k[5mC]*dA*d[5mC]*dT*dT*dG*dT*dT*dT*d[5mC]*dT*kG*k[5mC]*kA) [compound 800057]”, the “% Inhibition” value [5] was 46%.

For “799169 (antisense kT*kT*kG*dA*dG*d[5mC]*dT*dA*dA*dG*dA*dA*d[5mC]*kA*kG*kT) [compound 799169]”, the “% inhibition of SMAD7 mRNA expression” value [2] was 0%.

“799052 (antisense k[5mC]*kT*kG*dT*dG*dG*dA*d[5mC]*dA*dG*dG*d[5mC]*d[5mC]*k[5mC]*kG*kT) [compound 799052]” was tested, and the “% inhibition of SMAD7 mRNA expression” value [2] was 40%.

For “798889 (k[5mC]*kA*k[5mC]*dA*dA*dA*dG*d[5mC]*dT*dG*dA*dT*d[5mC]*kT*kG*k[5mC]; antisense) [compound 798889]”, the “% Inhibition” value [5] was 0%.

“800013 (kA*kA*kA*dG*dG*dA*dG*dA*dG*dG*dA*d[5mC]*dT*kT*k[5mC]*kA; antisense) [compound 800013]” was tested, and the “% Inhibition” value [5] was 56%.

With “799575 (k[5mC]*kA*k[5mC]*dA*dT*dT*d[5mC]*dA*dG*dG*dG*dT*dT*kT*kA*kA; antisense) [compound 799575]” the “% inhibition of SMAD7 mRNA expression” value [1] was 38%.

“830015 (antisense kG*k[5mC]*kT*dG*dG*dT*dG*d[5mC]*d[5mC]*dA*dG*dT*d[5mC]*kT*k[5mC]*kA) [compound 830015]” was tested, and the “% Inhibition” value [6] was 56%.

With “829721 (antisense kT*kG*k[5mC]*dG*d[5mC]*d[5mC]*dA*dG*dT*d[5mC]*dT*d[5mC]*d[5mC]*k[5mC]*kG*kG) [compound 829721]” the “% Inhibition” value [4] was 33%.

“799202 (antisense kT*kT*kT*dT*dT*dT*dT*d[5mC]*dA*dG*dG*dA*dG*kT*k[5mC]*k[5mC]) [compound 799202]” was tested, and the “% inhibition of SMAD7 mRNA expression” value [2] was 33%.

For “799126 (antisense kG*kA*k[5mC]*dA*dT*d[5mC]*d[5mC]*d[5mC]*d[5mC]*dG*d[5mC]*dT*dT*kG*k[5mC]*kT) [compound 799126]”, the “% inhibition of SMAD7 mRNA expression” value [2] was 4%.

“799900 (antisense k[5mC]*kA*kA*dG*dT*d[5mC]*dT*d[5mC]*dT*dT*dA*d[5mC]*d[5mC]*kT*k[5mC]*kA) [compound 799900]” was tested, and the “% Inhibition” value [5] was 51%.

For “799526 (kA*kA*kG*dG*dA*dG*dG*dT*dT*dT*dG*dG*dG*kT*kT*kG; antisense) [compound 799526]”, the “% Inhibition” value [7] was 12%.

With “830161 (antisense kA*kG*kG*dT*dG*dA*dA*dA*dG*dT*dT*dA*dT*k[5mC]*kA*k[5mC]) [compound 830161]” the “% Inhibition” value [6] was 13%.

With “798844 (kA*k[5mC]*k[5mC]*dT*dT*d[5mC]*dT*dG*d[5mC]*dA*d[5mC]*d[5mC]*dA*kG*k[5mC]*kT; antisense) [compound 798844]” the “% Inhibition” value [6] was 30%.

With “790647 (k[5mC]*kG*k[5mC]*dG*dA*dG*dG*d[5mC]*dG*dG*dT*dG*dA*kT*kT*kG; antisense) [compound 790647]” the “% Inhibition” value [4] was 24%.

For “829804 (kT*kA*kG*dT*dT*d[5mC]*dG*d[5mC]*dA*dG*dA*dG*dT*k[5mC]*kG*kG; antisense) [compound 829804]”, the “% Inhibition” value [3] was 39%.

“799059 (antisense kA*k[5mC]*kT*dA*dG*d[5mC]*dA*dG*dG*d[5mC]*dT*d[5mC]*dG*k[5mC]*kT*kG) [compound 799059]” was tested, and the “% Inhibition” value [2] was 18%.

For “799431 (antisense kG*kA*k[5mC]*dA*dG*d[5mC]*d[5mC]*dA*d[5mC]*dA*dA*dG*dT*k[5mC]*kA*k[5mC]) [compound 799431]”, the “% Inhibition” value [6] was 39%.

With “800052 (antisense k[5mC]*k[5mC]*k[5mC]*dT*d[5mC]*dT*dT*d[5mC]*d[5mC]*dG*dG*dG*dA*kG*kG*k[5mC]) [compound 800052]” the “% Inhibition” value [5] was 0%.

In the case of “799676 (antisense kG*kA*kA*dA*d[5mC]*d[5mC]*dA*dT*dG*dA*dG*d[5mC]*dT*kG*kT*kT) [compound 799676]”, the “% inhibition of SMAD7 mRNA expression” value [1] is reported as 64%.
